Format in all cases: functional
Experiment [1] concerns Spodoptera litura. The experiment is described as follows: Antifeedant activity against Spodoptera litura in Ricinus communis leaves assessed as mean leaf area fed by dual choice leaf disc bioassay. On the set-up: concentration or dose not given beside the values.
Experiment [2] has as its system Spodoptera litura. The experiment is described as follows: Antifeedant activity against Spodoptera litura in Ricinus communis leaves assessed as mean leaf area fed at 1 ug/cm'2 by dual choice leaf disc bioassay (reference value: 53 +/- 2.44 to 53.6 +/- 2.61 cm'2).
The subject of experiment [3] is Spodoptera litura. Put plainly: Antifeedant activity against Spodoptera litura in Ricinus communis leaves assessed as mean leaf area fed at 5 ug/cm'2 by dual choice leaf disc bioassay (reference value: 52.6 +/- 1.34 to 55.6 +/- 3.71 cm'2).
Experiment [4] has as its system Spodoptera litura. Put plainly: Antifeedant activity against Spodoptera litura in Ricinus communis leaves assessed as mean leaf area fed at 10 ug/cm'2 by dual choice leaf disc bioassay (reference value: 52.8 +/- 2.50 to 53.6 +/- 4.76 cm'2).
Experiment [5] relates to Henosepilachna vigintioctopunctata. Put plainly: Antifeedant activity against Henosepilachna vigintioctopunctata in Solanum nigrum leaves assessed as mean leaf area fed by dual choice leaf disk bioassay. Also on record: concentration or dose not given beside the values.
Experiment [6] has the same test system. The experiment is described as follows: Antifeedant activity against Henosepilachna vigintioctopunctata in Solanum nigrum leaves assessed as mean leaf area fed at 1 ug/cm'2 by dual choice leaf disk bioassay (reference value: 0.75 +/- 0.06 to 0.92 +/- 0.05 cm'2).
Experiment [7] shares this test system. Put plainly: Antifeedant activity against Henosepilachna vigintioctopunctata in Solanum nigrum leaves assessed as mean leaf area fed at 5 ug/cm'2 by dual choice leaf disk bioassay (reference value: 0.74 +/- 0.02 to 0.91 +/- 0.01 cm'2).
For experiment [8] the test system is unchanged. The experiment is described as follows: Antifeedant activity against Henosepilachna vigintioctopunctata in Solanum nigrum leaves assessed as mean leaf area fed at 10 ug/cm'2 by dual choice leaf disk bioassay (reference value: 0.78 +/- 0.04 to 0.99 +/- 0.17 cm'2).

As to `C/C=C(\C)C(=O)O[C@H]1C[C@@H](OC(C)=O)[C@@]2(C(=O)OC)CO[C@H]3[C@@H](O)[C@@](C)([C@]45O[C@@]4(C)[C@H]4C[C@@H]5O[C@@H]5OC=C[C@@]54O)[C@H]4[C@]1(CO[C@]4(O)C(=O)OC)[C@@H]32` [AZADIRACTIN], the Activity in experiment [1] worked out at 60%; in experiment [2], 20.3 cm2; in experiment [3] it was 13.5 cm2; in experiment [4], 5 cm2; in experiment [5], 56%; in experiment [6], 0.4 cm2. Further, the Activity in experiment [7] came to 0.2 cm2; in experiment [8], 0.05 cm2.
Turning to `COc1cc(O)c2c(c1)C(=O)c1cc(C)cc(O)c1C2=O` [PHYSCION], the Activity in experiment [1] is reported as 30%; in experiment [2] it was 33.4 cm2; in experiment [3], 21.6 cm2; in experiment [4], 11.3 cm2; in experiment [5], 34%; in experiment [6], 0.52 cm2. Moreover, the Activity in experiment [7] came to 0.32 cm2; in experiment [8] it was 0.15 cm2.
`COc1c2c(c(O)c3c1C(=O)C1=C(C[C@H](C)O[C@@H]1C)C3=O)OCO2` [VENTILOQUINONE A]: the Activity in experiment [1] is 40%; in experiment [2] it was 25.2 cm2; in experiment [3], 19.8 cm2; in experiment [4], 7.2 cm2; in experiment [5], 47%; in experiment [6], 0.46 cm2. Besides, the Activity in experiment [7] stood at 0.28 cm2; in experiment [8] it was 0.07 cm2.
Consider `COc1c2c(c(O)c3c1C(=O)c1coc(C)c1C3=O)OCO2` [VENTILONE B], for which the Activity in experiment [1] was 27%; in experiment [2], 34.9 cm2; in experiment [3], 23 cm2; in experiment [4], 13 cm2; in experiment [5], 31%; in experiment [6], 0.56 cm2. Besides, the Activity came out at 0.37 cm2 in experiment [7] and 0.19 cm2 in experiment [8].
Turning to `Cc1cc(O)c2c(c1)C(=O)c1cccc(O)c1C2=O` [CHRYSOPHANOL], the Activity in experiment [1] is 20%; in experiment [2], 40.4 cm2; in experiment [3], 24 cm2; in experiment [4], 13.6 cm2; in experiment [5], 26%; in experiment [6], 0.61 cm2. In addition, the results for the Activity in experiment [7] and in experiment [8] were 0.43 cm2 and 0.25 cm2, respectively.
For the molecule `COc1cc(OC)c2c(c1OC)C(=O)C1=C(C2=O)[C@@H](C)O[C@@H](C)C1` [VENTILOQUINONE E], the Activity in experiment [1] was found to be 25%; in experiment [2] it was 35.1 cm2; in experiment [3], 23.3 cm2; in experiment [4], 13.3 cm2; in experiment [5], 29%; in experiment [6] it was 0.58 cm2. For the same molecule, the Activity in experiment [7] worked out at 0.39 cm2; in experiment [8], 0.21 cm2.
In the case of `COc1c2c(c(OC)c3c1C(=O)C1=C(C3=O)[C@@H](C)O[C@@H](C)C1)OCO2` [VENTILOQUINONE B], the Activity in experiment [1] is reported as 29%; in experiment [2] it was 33.8 cm2; in experiment [3], 22.5 cm2; in experiment [4], 11.6 cm2; in experiment [5] it was 32%; in experiment [6] it was 0.54 cm2. Also, the Activity is reported as 0.34 cm2 in experiment [7] and 0.17 cm2 in experiment [8].
Take `Cc1cc(O)c2c(c1)C(=O)c1cc(O)cc(O)c1C2=O` [EMODIN]: the Activity in experiment [1] was 31%; in experiment [2] it was 33.2 cm2; in experiment [3], 20.5 cm2; in experiment [4], 11 cm2; in experiment [5], 44%; in experiment [6], 0.48 cm2. Besides, the Activity was determined as 0.3 cm2 in experiment [7] and 0.13 cm2 in experiment [8].

The values are drawn from ChEMBL document CHEMBL3045069, “Antifeedant activity of quinones from Ventilago madaraspatana” (2001).
